According to publication PMC11094580 (EFSA Journal, 2024):
pIC50, pKi: −log10 of the molar value. “Also recorded” adds a separate entry of the source. Where two headings read alike, the source gives them in different places.

What was measured:
[1] = cited from earlier work
[2] = tested on: Intestinal bacteria isolated from human faeces; conditions: 5 mg flavonoids in 50 mL broth, 2 days, anaerobic; ref Kim et al. (1998); cited from earlier work
[3] = target: simvastatin metabolism in human liver microsomes; conditions: ref Ubeaud et al. (1999); cited from earlier work
[4] = tested on: Wistar rats; conditions: ref Selvam and Kaliyaperumal (2015), cited from earlier work
[5] = target: simvastatin metabolism in rat liver microsomes; conditions: ref Ubeaud et al. (1999); cited from earlier work
[6] = tested on: human peripheral blood lymphocytes; assay: In vitro micronucleus assay with FISH analysis
[7] = tested on: Wistar rats; conditions: 200 mg/kg bw per day, 20 weeks, gavage, male rats; ref Ganapathy et al. (2008); cited from earlier work
[8] = human volunteers; ref Documentation provided to EFSA No. 4; cited from earlier work
[9] = tested on: felodipine metabolism by pig intestinal tissue slices; conditions: ref Fasinu et al. (2010); cited from earlier work
[10] = tested on: ERβ and ERα; conditions: in vitro; ref Helle et al. (2015); cited from earlier work
[11] = tested on: CYP2D6; conditions: concentrations up to 10 μM; ref Lu et al. (2011); cited from earlier work
[12] = tested on: Sprague Dawley rats; assay: Extended one-generation reproductive toxicity; format: in vivo, rat
[13] = tested on: Pig caecum; conditions: anaerobic incubation 0-24 h; ref Labib et al. (2004); cited from earlier work
[14] = Octanol/water partition coefficient; format: physicochemical
[15] = tested on: human faecal slurries; conditions: 50 μmol incubated, ref Pereira‐Caro et al. (2015), cited from earlier work
[16] = ref Kanaze et al. (2007), cited from earlier work
[17] = tested on: Lactobacillus rhamnosus subsp. Rhamnosus NCTC 10302; conditions: 25 μg/mL, cultures of L. rhamnosus; ref Pereira‐Caro et al. (2016); cited from earlier work
[18] = tested on: quinine metabolism in human liver microsomes; conditions: substrate quinine; ref Fasinu et al. (2013), Ho et al. (2001); cited from earlier work
[19] = F1 C1A females, high‐dose group

O=C1CC(c2ccc(O)cc2)Oc2cc(O)cc(O)c21 (stereo not drawn) [naringenin, 4H‐1‐Benzopyran‐4‐one, 2,3‐dihydro‐5,7‐dihydroxy‐2‐(4‐hydroxyphenyl)‐]
increase of solubility in water upon change of pH ([1]; 25°C, pH from 6.5 to 8.5, ref Lucas‐Abellán et al. (2019)): ~ 20 fold | increase of solubility in water upon increase of temperature ([1]; from 25 to 35°C, ref Zhang et al. (2013), Lucas‐Abellán et al. (2019)): 2 factor | Results: bacterial metabolism [2]: transformed to phenolic acids | pKi [3]: 4.64 | LD50 ([4]; Gavage, M, 10/group, arithmetic method): 340 mg/kg bw | LD50 ([4]; rats, considered not reliable by the Panel): about 330 mg/kg bw | pKi [5]: 4.52 | MN centromere-negative (FISH analysis) ([6]; 4‐h treatment with or without S9‐mix, naringenin 75, 200 and 250 μg/mL): > 64% | Result ([6]; 125, 150, 200 μg/mL (4 h + 24 h, +S9)): Positive FISH analysis indicates that naringenin induced micronuclei by a clastogenic mechanism | Result ([6]; 125, 150, 200, 250 μg/mL (4 h + 24 h, –S9)): Positive FISH analysis indicates that naringenin induced micronuclei by a clastogenic mechanism | MNBN frequency ([6]; 24 h + 24 h treatment): no statistically significant increase | assessed biochemical parameters in stomach and liver [7]: no significant effects | glucuronic acid and sulfate conjugates as share of the dose [8]: ~ 20 % of the dose | pIC50 [9]: 3.74 | affinity for oestrogen receptors [10]: stronger affinity with ERβ than ERα | inhibition [11]: No appreciable inhibition | Absolute organ weight ([12]; F1 C1A females): ↑ G3, G4 thymus; also recorded: ↑ G4 spleen and iliac lymph nodes | Thyroid hormone levels: T4 ([12]; F1 C1A females): T4: – | increase in mean platelet count [12, 19]: 25% | mean platelet count [12, 19]: 1138.20 × 10^3 cells/μL | Absolute organ weight ([12]; F1 C1A males): ↓ G2 and G3 testes and iliac lymph nodes; also recorded: ↓ G4 iliac lymph nodes | Lymphocyte typing (spleen): T helper cells (CD4+) ([12]; F1 C1A males): T helper cells (CD4+): ↑ G2, G3 and G4, no dose‐related trend | Thyroid hormone levels: T4 ([12]; F1 C1A males): T4: – | Thyroid hormone levels: TSH ([12]; F1 C1A males): TSH: – | Absolute organ weight ([12]; F1 C1B females): ↑ G4 thymus; also recorded: ↑ G3 uterus with cervix | Absolute organ weight ([12]; F1 C1B males): ↑ G3 thymus | Absolute organ weight ([12]; F1 pups (surplus) females, PND 21): PND 21: ↓ G2 spleen; ↑ G3 spleen; ↓ G2 brain | Absolute organ weight ([12]; F1 pups (surplus) males, PND 21): PND 21: ↑ G3 spleen | reduction of anogenital distance (AGD) ([12]; F1 pups, PND4, highest dose females): 4% | decreased normal sperm ([12]; F1‐C1A cohort): ~ 1% | increased sperm with abnormalities ([12]; F1‐C1A cohort): 50% | increase of thymus gland weight ([12]; F1‐C1A females, highest dose group): 24% | reduction of daily sperm production ([12]; F1‐C1A males, high dose): 2% | reduction of daily sperm production ([12]; F1‐C1A males, low dose): 7% | decrease of absolute iliac lymph node weight ([12]; F1‐C1A males, mid dose): 30% | mean pre-coital interval ([12]; F1‐CB cohort, G3): 7.6 days | change in mean pup weight ([12]; F2, PND 1, males, group G4‐C1B): −4% | change in mean pup weight ([12]; F2, PND 4, females, group G4‐C1B): −8% | change in mean pup weight ([12]; F2, PND 14, females, group G3‐C1B): −5% | change in mean pup weight ([12]; F2, PND 14, females, group G4‐C1B): −5% | oestrous cycle length, increase following exposure ([12]; P females, significant in lowest and highest exposed groups): up to 6% | mean pre-coital interval ([12]; P generation, G4): 8 days | decrease in mean urinary pH value ([12]; P males, high‐dose group): 12% | increase in mean urinary specific gravity ([12]; P males, high‐dose group): 1% | margin of exposure (MoE) ([12]; adults, chronic APET as flavouring substance, NOAEL 1320 mg/kg bw per day): 1590 | margin of exposure (MoE) ([12]; adults, chronic combined exposure incl. other food sources): 1390 | fertility indices (pregnancy, parturition and gestation) ([12]; all tested dose groups, P and F1‐C1B generations): 100% | margin of exposure (MoE) ([12]; children, acute combined exposure): 48 | margin of exposure (MoE) ([12]; children, chronic APET as flavouring substance, NOAEL 1320 mg/kg bw per day): 630 | margin of exposure (MoE) ([12]; children, chronic combined exposure incl. other food sources): 550 | post-implantation loss ([12]; high‐dose P females): 12.6% | NOAEL (dietary concentration) ([12]; mid‐dose): 20,000 mg/kg feed | NOAEL ([12]; mid‐dose, P males, pre‐cohabitation period): 1320 mg/kg bw per day | Results: microbial transformation products [13]: Naringenin was transformed to 3‐(4‐hydroxyphenyl)‐propionic acid and 3‐phenylpropionic acid | octanol/water partition coefficient [14]: 2.52 | naringenin remaining ([15]; after 4 h of incubation): 26 to 36 µmol | naringenin remaining ([15]; after 6 h of incubation): 13 to 28 µmol | naringenin remaining ([15]; after 24 h of incubation): 3 to 8 µmol | Cmax ([16]; single oral 135 mg (496 μmol) capsule): 7.5 µM | cumulative urinary excretion, percentage of administered dose ([16]; single oral 135 mg capsule, 24 h after dosing): 5.81 ± 0.81% | T max (time of peak plasma level) ([16]; single oral 135 mg capsule): 4 h | peak plasma concentration (total naringenin) ([16]; single oral 135 mg capsule): 7.4 µM | time of first appearance in plasma after dosing ([16]; single oral 135 mg capsule): 20 min | Half-life of elimination (plasma) ([16]; single oral 135 mg capsule, listed as NAR‐A): T ½ ~ 2.3 h | Recovery [17]: 83% | pIC50 [18]: 3.73 to 3.86
